Laboratory results published in patent US5308581A, “Substance of an optical fluorescence measuring arrangement for measuring the pH of a sample and optical sensor with such an indicator substance” (AVL Medical Instruments AG, priority 1990, dated 1994).
Where two headings read alike, the source gives them in different places.

Key:
Type in all cases: physicochemical
[1] = acid dissociation of the indicator in its electronic ground state (pKa); details: for pKa acidic form (BH^+) in ground state: indicator base, conjugate acid BH^+; for pKa acidic form (AH) in ground state: indicator acid AH
Description: Ka acid constant (dissociation equilibrium
pK value of an acid or conjugate acid
The pKa value of the electronically non-excited acid (AH or BH^+) is in the relevant measuring range.

[2] = acid dissociation of the indicator in its electronically excited state (pKa *); details: for pKa * value in the excited state exceeds the pKa value in the ground state by: increase
Description: S and .tau.B of the acidic forms (AH*, BH^+*) and basic forms (S^-*, B*) of the indicator differ from each other. In both fundamental instances the measured luminescence decay time .tau. is a function of the luminescence decay times .tau.B and .tau.S, their weighting depending on the pH prevailing in the sample.
The pKa * value of the electronically excited acid (AH* or BH^+*) is in the relevant measuring range.

[3] = luminescence decay time of the acidic and basic forms of the indicator in the excited state; details: for luminescence decay time excited state .tau.(B*): excited base B*; for luminescence decay time excited state .tau.(BH+*): excited conjugate acid BH^+*; for luminescence decay time excited state .tau.(AH*): excited acid AH*; for luminescence decay time excited state .tau.(A-*): excited conjugate base A^-*
Protocol: .tau. lifetime of the excited state (luminescence
(§1) In an embodiment of the invention referring to item 1, the indicator is immobilized on a solid substrate, for example, and is brought into contact with the sample. […] After separation of the exciting light by means of a cut-off filter, fluorescence is detected over a broad band of the spectrum (for instance, by means of a photomultiplier or a pin photodiode) and decay time is measured electronically. As dissociation takes place in the ground state, both the absorption spectrum and the fluorescence spectrum are modified, which will have no negative effect on the measurement, however, due to the broad-band character of excitation and detection, or rather, due to the choice of the excitation wavelength in the overlap region of the absorption spectra and the broad detection band. Via a stored calibrating function the recorded decay times may be converted into pH values by a computer.
(§2) In an embodiment of the invention referring to item 2, a suitable indicator is immobilized on a solid substrate, and is dipped into the sample. Excitation takes place monochromatically with the use of a short-time light source (e.g., a coaxial flashlamp) and a color filter tuned to the absorption wavelength of the indicator (e.g., an interference filter). After separation of the exciting light by means of a cut-off filter, emission is detected over a broad band of the spectrum (for instance, by means of a photomultiplier or a pin photodiode). The pH value again is determined from the measured decay time via a stored calibrating function.

[4] = excitation/emission maxima of the acidic and basic forms of the indicator; details: for emission maximum basic form / excitation maximum basic form: B; for emission maximum conjugate acidic form / excitation maximum conjugate acidic form: BH^+; for emission maximum acidic form / excitation maximum acidic form: AH; for emission maximum conjugate basic form / excitation maximum conjugate basic form: A^-
Protocol: as §1, §2

[5] = pH measuring range of the indicator via luminescence decay time
Protocol: as §1, §2

[6] = excited vs ground state, decrease

pKa acidic form (AH) in ground state [1] | pKa * value in the excited state is lower than the pKa value in the ground state by [2] | luminescence decay time excited state .tau.(AH*) [3] | luminescence decay time excited state .tau.(A-*) [3] | emission maximum acidic form [4] | excitation maximum acidic form [4] | emission maximum conjugate basic form [4] | excitation maximum conjugate basic form [4] | SMILES | pKa acidic form (BH^+) in ground state [1] | pKa * value in the excited state exceeds the pKa value in the ground state by ([2]; excited vs ground state) | luminescence decay time excited state .tau.(B*) [3] | luminescence decay time excited state .tau.(BH+*) [3] | emission maximum basic form [4] | excitation maximum basic form [4] | emission maximum conjugate acidic form [4] | excitation maximum conjugate acidic form [4] | measuring range [5] | pKa * value in the excited state is lower than the pKa value in the ground state by [2, 6]
 |  |  |  |  |  |  |  | O=c1c2ccccc2[nH]c2ccccc12 [9(10H)-acridone] | 0.02 | 1.7 units | 26 ns | 15 ns | 440 nm | 383 nm | 456 nm | 399 nm | 0.5-2.5 pH | 
~3 | approx. 2 units | 2.5 ns | 9.0 ns | 340 nm | 278 nm | 340 nm | 285 nm | O=C(O)Cc1c[nH]c2ccccc12 [3-indolylacetic acid] |  |  |  |  |  |  |  |  | 2-4 pH | 
 |  |  |  |  |  |  |  | c1ccc2nc3ccccc3cc2c1 [Acridine] | 5.45 | 5.25 units | 14 ns | 33 ns | 430 nm | 356 nm | 475 nm | 356 nm | 4.0-7.0 pH | 
~9.8 |  | 9.0 ns | 4.8 ns | 356 nm | 328 nm | 410 nm | 348 nm | Oc1ccc2ccccc2c1 [Example 2-naphthol, 2-naphthol] |  |  |  |  |  |  |  |  | 1.2-4.3 pH | 7 units

SMILES | pKa acidic form (AH) in ground state [1] | pKa * value in the excited state is lower than the pKa value in the ground state by [2] | luminescence decay time excited state .tau.(AH*) [3] | luminescence decay time excited state .tau.(A-*) [3] | emission maximum acidic form [4] | excitation maximum acidic form [4] | emission maximum conjugate basic form [4] | excitation maximum conjugate basic form [4] | pKa acidic form (BH^+) in ground state [1] | pKa * value in the excited state exceeds the pKa value in the ground state by ([2]; excited vs ground state) | luminescence decay time excited state .tau.(B*) [3] | luminescence decay time excited state .tau.(BH+*) [3] | emission maximum basic form [4] | excitation maximum basic form [4] | emission maximum conjugate acidic form [4] | excitation maximum conjugate acidic form [4] | measuring range [5] | pKa * value in the excited state is lower than the pKa value in the ground state by [2, 6]
O=Cc1ccccc1O [Salicylaldehyde] | ~8.5 |  | < 1 ns | ~3 ns | 525 nm | 327 nm | 400 nm | 380 nm |  |  |  |  |  |  |  |  | 7-10 pH | approx. 6.5 units
